Source: patent publication US9738634B2, “Heterocyclic amide compound and herbicide” (SYNGENTA PARTICIPATIONS AG, priority 2013, dated 2017)

Experiments:
Assay type in all cases: in vivo
barnyard grass [1] = experiment: Test Example 1: weedkilling efficacy, preemergent weed treatment in the submerged state; A: barnyard grass; conditions: treatment dosage 252 g/ha
Method in brief: (§1)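 Emulsion diluted with water to the specified per-hectare dosage is applied onto flood water (4 cm) over alluvial soil on the sowing day, with barnyard grass, bulrush and pondweed seeded and rice (2.5-leaf) transplanted; plants grow at 25–30 °C and are rated at 3 weeks.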

bulrush [2] = experiment: Test Example 1: weedkilling efficacy, preemergent weed treatment in the submerged state; B: bulrush; conditions: treatment dosage 252 g/ha
Method in brief: as §1

oval-leafed pondweed [3] = experiment: Test Example 1: weedkilling efficacy, preemergent weed treatment in the submerged state; C: oval-leafed pondweed; conditions: treatment dosage 252 g/ha
Method in brief: as §1

transplanted rice = experiment: Test Example 1: preemergent weed treatment in the submerged state, effect on crop; a: transplanted rice; conditions: treatment dosage 252 g/ha
Method in brief: as §1

barnyard grass [4] = experiment: Test Example 2: weedkilling efficacy, growth period weed treatment in the submerged state; A: barnyard grass; conditions: treatment dosage 252 g/ha
Method in brief: (§2)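 First, alluvial soil in pots is flooded to 4 cm and mixed seed is sown. Next, plants grow in a greenhouse at 25 to 30° C until the 1-2 leaf stage. Then diluted emulsion is applied onto the water surface at the given g/ha rate, and injury is assessed after 3 weeks.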

bulrush [5] = experiment: Test Example 2: weedkilling efficacy, growth period weed treatment in the submerged state; B: bulrush; conditions: treatment dosage 252 g/ha
Method in brief: as §2

oval-leafed pondweed [6] = experiment: Test Example 2: weedkilling efficacy, growth period weed treatment in the submerged state; C: oval-leafed pondweed; conditions: treatment dosage 252 g/ha
Method in brief: as §2

crabgrass [7] = experiment: Test Example 3: weedkilling efficacy through soil treatment; D: crabgrass; conditions: treatment dosage 315 g/ha
Method in brief: (§3)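 Crop and weed responses were judged three weeks after a uniform surface spray of the water-diluted emulsion at the given g/ha rate. Seeds sat beneath about 1.5 cm of sterilized diluvial soil, and boxes stood in a greenhouse at 25 to 30° C.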

green foxtail [8] = experiment: Test Example 3: weedkilling efficacy through soil treatment; E: green foxtail; conditions: treatment dosage 315 g/ha
Method in brief: as §3

wild oat [9] = experiment: Test Example 3: weedkilling efficacy through soil treatment; G: wild oat; conditions: treatment dosage 315 g/ha
Method in brief: as §3

black-grass [10] = experiment: Test Example 3: weedkilling efficacy through soil treatment; H: black-grass; conditions: treatment dosage 315 g/ha
Method in brief: as §3

Italian ryegrass [11] = experiment: Test Example 3: weedkilling efficacy through soil treatment; I: Italian ryegrass; conditions: treatment dosage 315 g/ha
Method in brief: as §3

Indian mallow [12] = experiment: Test Example 3: weedkilling efficacy through soil treatment; K: Indian mallow; conditions: treatment dosage 315 g/ha
Method in brief: as §3

redroot pigweed [13] = experiment: Test Example 3: weedkilling efficacy through soil treatment; L: redroot pigweed; conditions: treatment dosage 315 g/ha
Method in brief: as §3

fig-leafed goosefoot [14] = experiment: Test Example 3: weedkilling efficacy through soil treatment; M: fig-leafed goosefoot; conditions: treatment dosage 315 g/ha
Method in brief: as §3

chickweed [15] = experiment: Test Example 3: weedkilling efficacy through soil treatment; N: chickweed; conditions: treatment dosage 315 g/ha
Method in brief: as §3

catchweed [16] = experiment: Test Example 3: weedkilling efficacy through soil treatment; O: catchweed; conditions: treatment dosage 315 g/ha
Method in brief: as §3

birds-eye speedwell [17] = experiment: Test Example 3: weedkilling efficacy through soil treatment; p: birds-eye speedwell; conditions: treatment dosage 315 g/ha
Method in brief: as §3

directly sown rice [18] = experiment: Test Example 3: soil treatment, effect on crop; b: directly sown rice; conditions: treatment dosage 315 g/ha
Method in brief: as §3

corn [19] = experiment: Test Example 3: soil treatment, effect on crop; c: corn; conditions: treatment dosage 315 g/ha
Method in brief: as §3

soybean [20] = experiment: Test Example 3: soil treatment, effect on crop; d: soybean; conditions: treatment dosage 315 g/ha
Method in brief: as §3

wheat [21] = experiment: Test Example 3: soil treatment, effect on crop; e: wheat; conditions: treatment dosage 315 g/ha
Method in brief: as §3

beet [22] = experiment: Test Example 3: soil treatment, effect on crop; f: beet; conditions: treatment dosage 315 g/ha
Method in brief: as §3

crabgrass [23] = experiment: Test Example 4: weedkilling efficacy by foliar treatment; D: crabgrass; conditions: treatment dosage 315 g/ha
Method in brief: (§4)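 Seeds are spot-sown into sterilized diluvial soil and covered with about 1.5 cm of soil. After 14 days' greenhouse growth at 25 to 30° C, plants are sprayed on stems and leaves with diluted emulsion at the stated g/ha rate, then scored at 3 weeks.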

green foxtail [24] = experiment: Test Example 4: weedkilling efficacy by foliar treatment; E: green foxtail; conditions: treatment dosage 315 g/ha
Method in brief: as §4

wild oat [25] = experiment: Test Example 4: weedkilling efficacy by foliar treatment; G: wild oat; conditions: treatment dosage 315 g/ha
Method in brief: as §4

black-grass [26] = experiment: Test Example 4: weedkilling efficacy by foliar treatment; H: black-grass; conditions: treatment dosage 315 g/ha
Method in brief: as §4

Italian ryegrass [27] = experiment: Test Example 4: weedkilling efficacy by foliar treatment; I: Italian ryegrass; conditions: treatment dosage 315 g/ha
Method in brief: as §4

Indian mallow [28] = experiment: Test Example 4: weedkilling efficacy by foliar treatment; K: Indian mallow; conditions: treatment dosage 315 g/ha
Method in brief: as §4

redroot pigweed [29] = experiment: Test Example 4: weedkilling efficacy by foliar treatment; L: redroot pigweed; conditions: treatment dosage 315 g/ha
Method in brief: as §4

fig-leafed goosefoot [30] = experiment: Test Example 4: weedkilling efficacy by foliar treatment; M: fig-leafed goosefoot; conditions: treatment dosage 315 g/ha
Method in brief: as §4

chickweed [31] = experiment: Test Example 4: weedkilling efficacy by foliar treatment; N: chickweed; conditions: treatment dosage 315 g/ha
Method in brief: as §4

catchweed [32] = experiment: Test Example 4: weedkilling efficacy by foliar treatment; O: catchweed; conditions: treatment dosage 315 g/ha
Method in brief: as §4

birds-eye speedwell [33] = experiment: Test Example 4: weedkilling efficacy by foliar treatment; p: birds-eye speedwell; conditions: treatment dosage 315 g/ha
Method in brief: as §4

directly sown rice [34] = experiment: Test Example 4: foliar treatment, effect on crop; b: directly sown rice; conditions: treatment dosage 315 g/ha
Method in brief: as §4

corn [35] = experiment: Test Example 4: foliar treatment, effect on crop; c: corn; conditions: treatment dosage 315 g/ha
Method in brief: as §4

soybean [36] = experiment: Test Example 4: foliar treatment, effect on crop; d: soybean; conditions: treatment dosage 315 g/ha
Method in brief: as §4

wheat [37] = experiment: Test Example 4: foliar treatment, effect on crop; e: wheat; conditions: treatment dosage 315 g/ha
Method in brief: as §4

beet [38] = experiment: Test Example 4: foliar treatment, effect on crop; f: beet; conditions: treatment dosage 315 g/ha
Method in brief: as §4

Structure (SMILES)	D (crabgrass) weedkilling efficacy grade (crabgrass [7])	E (green foxtail) weedkilling efficacy grade (green foxtail [8])	G (wild oat) weedkilling efficacy grade (wild oat [9])	H (black-grass) weedkilling efficacy grade (black-grass [10])	I (Italian ryegrass) weedkilling efficacy grade (Italian ryegrass [11])	K (Indian mallow) weedkilling efficacy grade (Indian mallow [12])	L (redroot pigweed) weedkilling efficacy grade (redroot pigweed [13])	M (fig-leafed goosefoot) weedkilling efficacy grade (fig-leafed goosefoot [14])	N (chickweed) weedkilling efficacy grade (chickweed [15])	O (catchweed) weedkilling efficacy grade (catchweed [16])	P (birds-eye speedwell) weedkilling efficacy grade (birds-eye speedwell [17])	b (directly sown rice) effect on crop grade (directly sown rice [18])	c (corn) effect on crop grade (corn [19])	d (soybean) effect on crop grade (soybean [20])	e (wheat) effect on crop grade (wheat [21])	f (beet) effect on crop grade (beet [22])	D (crabgrass) weedkilling efficacy grade (crabgrass [23])	E (green foxtail) weedkilling efficacy grade (green foxtail [24])	G (wild oat) weedkilling efficacy grade (wild oat [25])	H (black-grass) weedkilling efficacy grade (black-grass [26])	other results
CC1=C(c2ccccc2)C(=O)N(C(C)(C)C(=O)Nc2nnc(C(F)(F)F)s2)CO1 [B-1-10]	5 (weed kill ratio 90% or more, (practically complete withering))	5 (weed kill ratio 90% or more, (practically complete withering))	4 (weed kill ratio 70% or more, less than 90%)	5 (weed kill ratio 90% or more, (practically complete withering))	3 (weed kill ratio 40% or more, less than 70%)	3 (weed kill ratio 40% or more, less than 70%)	3 (weed kill ratio 40% or more, less than 70%)	3 (weed kill ratio 40% or more, less than 70%)	2 (weed kill ratio 20% or more, less than 40%)	0 (weed kill ratio 5% or less (practically no effect))	4 (weed kill ratio 70% or more, less than 90%)	5 (weed kill ratio 90% or more, (practically complete withering))	3 (weed kill ratio 40% or more, less than 70%)	0 (weed kill ratio 5% or less (practically no effect))	0 (weed kill ratio 5% or less (practically no effect))	3 (weed kill ratio 40% or more, less than 70%)	5 (weed kill ratio 90% or more, (practically complete withering))	5 (weed kill ratio 90% or more, (practically complete withering))	2 (weed kill ratio 20% or more, less than 40%)	4 (weed kill ratio 70% or more, less than 90%)	A (barnyard grass) weedkilling efficacy grade (barnyard grass [1]): 5 (weed kill ratio 90% or more, (practically complete withering)); B (bulrush) weedkilling efficacy grade (bulrush [2]): 5 (weed kill ratio 90% or more, (practically complete withering)); C (oval-leafed pondweed) weedkilling efficacy grade (oval-leafed pondweed [3]): 5 (weed kill ratio 90% or more, (practically complete withering)); a (transplanted rice) effect on crop grade (transplanted rice): 3 (weed kill ratio 40% or more, less than 70%); A (barnyard grass) weedkilling efficacy grade (barnyard grass [4]): 4 (weed kill ratio 70% or more, less than 90%); B (bulrush) weedkilling efficacy grade (bulrush [5]): 5 (weed kill ratio 90% or more, (practically complete withering)); C (oval-leafed pondweed) weedkilling efficacy grade (oval-leafed pondweed [6]): 5 (weed kill ratio 90% or more, (practically complete withering)); I (Italian ryegrass) weedkilling efficacy grade (Italian ryegrass [27]): 0 (weed kill ratio 5% or less (practically no effect)); K (Indian mallow) weedkilling efficacy grade (Indian mallow [28]): 4 (weed kill ratio 70% or more, less than 90%); L (redroot pigweed) weedkilling efficacy grade (redroot pigweed [29]): 2 (weed kill ratio 20% or more, less than 40%); M (fig-leafed goosefoot) weedkilling efficacy grade (fig-leafed goosefoot [30]): 3 (weed kill ratio 40% or more, less than 70%); N (chickweed) weedkilling efficacy grade (chickweed [31]): 2 (weed kill ratio 20% or more, less than 40%); O (catchweed) weedkilling efficacy grade (catchweed [32]): 2 (weed kill ratio 20% or more, less than 40%); P (birds-eye speedwell) weedkilling efficacy grade (birds-eye speedwell [33]): 4 (weed kill ratio 70% or more, less than 90%); b (directly sown rice) effect on crop grade (directly sown rice [34]): 5 (weed kill ratio 90% or more, (practically complete withering)); c (corn) effect on crop grade (corn [35]): 4 (weed kill ratio 70% or more, less than 90%); d (soybean) effect on crop grade (soybean [36]): 2 (weed kill ratio 20% or more, less than 40%); e (wheat) effect on crop grade (wheat [37]): 0 (weed kill ratio 5% or less (practically no effect)); f (beet) effect on crop grade (beet [38]): 2 (weed kill ratio 20% or more, less than 40%)
CC1=C(c2cccnc2F)C(=O)N(C(C)(C)C(=O)Nc2cc(C(F)(F)F)ccn2)CO1 [B-2-17, 2-[5-(2-fluoropyridin-3-yl)-6-methyl-4-oxo-2H-1,3-oxazin-3(4H)-yl]-2-methyl-N-[4-(trifluoromethyl)pyridin-2-yl] propionamide]	5 (weed kill ratio 90% or more, (practically complete withering))	5 (weed kill ratio 90% or more, (practically complete withering))	5 (weed kill ratio 90% or more, (practically complete withering))	5 (weed kill ratio 90% or more, (practically complete withering))	5 (weed kill ratio 90% or more, (practically complete withering))	2 (weed kill ratio 20% or more, less than 40%)	2 (weed kill ratio 20% or more, less than 40%)	3 (weed kill ratio 40% or more, less than 70%)	3 (weed kill ratio 40% or more, less than 70%)	1 (weed kill ratio 5% or more, less than 20%)	5 (weed kill ratio 90% or more, (practically complete withering))	4 (weed kill ratio 70% or more, less than 90%)	2 (weed kill ratio 20% or more, less than 40%)	2 (weed kill ratio 20% or more, less than 40%)	1 (weed kill ratio 5% or more, less than 20%)	0 (weed kill ratio 5% or less (practically no effect))	5 (weed kill ratio 90% or more, (practically complete withering))	5 (weed kill ratio 90% or more, (practically complete withering))	4 (weed kill ratio 70% or more, less than 90%)	4 (weed kill ratio 70% or more, less than 90%)	I (Italian ryegrass) weedkilling efficacy grade (Italian ryegrass [27]): 5 (weed kill ratio 90% or more, (practically complete withering)); K (Indian mallow) weedkilling efficacy grade (Indian mallow [28]): 1 (weed kill ratio 5% or more, less than 20%); L (redroot pigweed) weedkilling efficacy grade (redroot pigweed [29]): 3 (weed kill ratio 40% or more, less than 70%); M (fig-leafed goosefoot) weedkilling efficacy grade (fig-leafed goosefoot [30]): 2 (weed kill ratio 20% or more, less than 40%); N (chickweed) weedkilling efficacy grade (chickweed [31]): 2 (weed kill ratio 20% or more, less than 40%); O (catchweed) weedkilling efficacy grade (catchweed [32]): 0 (weed kill ratio 5% or less (practically no effect)); P (birds-eye speedwell) weedkilling efficacy grade (birds-eye speedwell [33]): 2 (weed kill ratio 20% or more, less than 40%); b (directly sown rice) effect on crop grade (directly sown rice [34]): 5 (weed kill ratio 90% or more, (practically complete withering)); c (corn) effect on crop grade (corn [35]): 3 (weed kill ratio 40% or more, less than 70%); d (soybean) effect on crop grade (soybean [36]): 0 (weed kill ratio 5% or less (practically no effect)); e (wheat) effect on crop grade (wheat [37]): 0 (weed kill ratio 5% or less (practically no effect)); f (beet) effect on crop grade (beet [38]): 2 (weed kill ratio 20% or more, less than 40%)
